Measurements taken from US8981111B2 (priority 2008, dated 2015).

Test: log P (HPLC/MS data of the preparation examples)
Details: for log p: linear gradient 10% to 95% acetonitrile
[1] = LC-MS, method [b]: pH 2.7 with 0.1% formic acid in water and acetonitrile
[2] = method [b]: LC-MS at pH 2.7, 0.1% formic acid in water / acetonitrile
[3] = HPLC (LC-MS) method [b]: pH 2.7, 0.1% formic acid in water and acetonitrile, EEC directive 79/831 Annex V.A8
[4] = reversed phase HPLC column, pH 2.7

| Compound | log p [1] | log p [2] | further results |
| --- | --- | --- | --- |
| CCCCC(=O)NCc1cccc(CON=C(c2ccccc2)c2ncnn2C)n1 [Example 135] | 2.28^[b] | – | – |
| CC(C)COC(=O)Nc1cccc(CON=C(c2ccccc2)c2nccn2C)n1 [Example 325] | 2.21^[b] | – | – |
| CCCCCOC(=O)Nc1cccc(CON=C(c2ccccc2)c2cnnn2C)n1 [Example 69] | 2.46^[b] | – | – |
| Cn1nncc1C(=NOCc1csc(N)n1)c1ccccc1 [Example 165] | – | 1.29^[b] | – |
| Cn1ccnc1C(=NOCc1cccc(NC(=O)Cc2ccccc2F)n1)c1ccccc1 [Example 269] | – | 2.4^[b] | – |
| Cn1nc(C(F)(F)F)nc1C(=NOCc1cccc(N2C(=O)c3ccccc3C2=O)n1)c1ccccc1 [Example 183] | – | 3.99^[b] | – |
| CCCCCCC(=O)Nc1cccc(CON=C(c2ccccc2)c2nc(C)cnc2C)n1 [Example 380] | 4.54^[b] | – | – |
| Cn1ncnc1C(=NOCc1cccc(N2C(=O)c3ccccc3C2=O)n1)c1ncc(C(F)(F)F)cc1Cl [Example 465] | – | – | log p [3]: 3.15^[b] |
| Cn1ccnc1C(=NOCc1cccc(NC(=O)OCCF)n1)c1ccccc1 [Example 272] | – | 1.81^[b] | – |
| C#CCCCC(=O)Nc1cccc(CON=C(c2ccccc2)c2ncnn2C)n1 [Example 309] | 2.7^[b] | – | – |
| CCCCCC(=O)Nc1cccc(CON=C(c2ccccc2)c2ocnc2C)n1 [Example 320, N-{6-[({[(4-methyl-1,3-oxazol-5-yl)(phenyl)methylene]amino}oxy)methyl]pyridin-2-yl}hexanamide] | – | – | chromatographic logP [4]: 3.94 |
| Cn1ncnc1C(=NOCc1cccc(NC(=O)CCCCCl)n1)c1ccccc1 [Example 308] | 2.98^[b] | – | – |
| Cc1nocc1C(=O)c1cccs1 [(3-methyl-1,2-oxazol-4-yl)(2-thienyl)methanone] | – | – | chromatographic logP (HCOOH (formic acid)): 2.2 |
| CCCCCOC(=O)Nc1cccc(CON=C(c2ncc(C(F)(F)F)cc2Cl)c2ncnn2C)n1 [Example 469] | – | – | log p [3]: 4.41^[b] |
| 2-[({[(1-methyl-1H-imidazol-5-yl)(phenyl)methylene]amino}oxy)methyl]pyrimidin-4-amine [Example 105] | 5.05^[b] | – | log P(HCOOH) (HCOOH): < 0.23 |
| CCCCCOC(=O)Nc1cccc(CON=C(c2ccccc2)c2cncn2C)n1 [Example 253] | – | 2.39^[b] | – |
| Cn1ccnc1C(=NOCc1cccc(NC(=O)COc2ccccc2)n1)c1cccc(F)c1 [Example 293] | 2.63^[b] | – | – |
| Cn1nncc1C(=NOCc1cccc(N)n1)c1ccccc1 [Example 60] | 1.11^[b] | – | – |
| CC(C)CC(=O)Nc1nc(CON=C(c2ccccc2)c2cnnn2C)cs1 [Example 86] | 3^[b] | – | – |
| Cn1nc(C(=NOCc2cccc(NC(=O)CCC3CCCC3)n2)c2ccccc2)n(C)c1=O [Example 153] | – | 3.71^[b] | – |
| Cn1cnnc1C(=NOCc1cccc(N2C(=O)c3ccccc3C2=O)n1)c1ccccc1 [Example 144] | – | 2.3^[b] | – |
| COc1ccc(CC(=O)Nc2cccc(CON=C(c3cccc(F)c3)c3nccn3C)n2)cc1 [Example 273] | – | 2.54^[b] | – |
| Cn1ncnc1C(=NOCc1cccc(NC(=O)Cc2cccc(Cl)c2)n1)c1ccccc1 [Example 313] | 3.5^[b] | – | – |
| Cc1nc(C(=NOCc2cccc(N3C(=O)c4ccccc4C3=O)n2)c2ccccc2)cs1 (single isomer, unassigned) [Example 168] | – | 3.27^[b] | – |
| COc1cccc(CC(=O)Nc2cccc(CON=C(c3ccccc3)c3nccn3C)n2)c1 [Example 267] | – | 2.37^[b] | – |
| CCCC(C)C(=O)Nc1cccc(CON=C(c2ccccc2)c2nccn2C)n1 (stereo not shown) [Example 263] | – | 2.54^[b] | – |
| Cc1ncc(C(=NOCc2cccc(N3C(=O)c4ccccc4C3=O)n2)c2ccccc2)n1C [Example 194] | – | 1.84^[b] | – |

| Compound | log p [1] | log p [2] | further results |
| --- | --- | --- | --- |
| Cn1ccnc1C(=NOCc1cccc(NC(=O)Cc2cccs2)n1)c1cccc(F)c1 [Example 290] | 2.44^[b] | – | – |
| CC(C)CCC(=O)Nc1cccc(CON=C(c2ccccc2)c2ncnn2C)n1 [Example 306] | 3.37^[b] | – | – |
| CC(C)CC(=O)Nc1cccc(CON=C(c2ccccc2)c2nc(C(F)(F)F)nn2C)n1 [Example 177] | – | 4.24^[b] | – |
| Cn1cncc1C(=NOCc1cccc(NC(=O)COc2ccccc2)n1)c1ccsc1 [Example 435] | – | – | log p [3]: 1.96^[b] |
| Cn1ncnc1C(=NOCc1cccc(NC(=O)Cc2ccccc2)n1)c1ccccc1 [Example 29] | 3.06^[b] | – | – |
| COc1ccc(C(=NOCc2cccc(NC(=O)C(C)(C)C)n2)c2ncc(C(F)(F)F)cc2Cl)cc1Br [Example 359] | 5.2^[b] | – | – |
| COc1ccc(C(=NOCc2cccc(NC(=O)Cc3ccccc3)n2)c2ncc(C(F)(F)F)cc2Cl)cc1Br [Example 365] | 5.08^[b] | – | – |
| CCCCCOC(=O)Nc1cccc(CON=C(c2cccs2)c2ncnn2C)n1 [Example 394] | 3.82^[b] | – | – |
| Cn1cncc1C(=NOCc1cccc(N2C(=O)c3ccccc3C2=O)n1)c1cccs1 [Example 494, 2-{6-[({[(1-methyl-1H-imidazol-5-yl)(2-thienyl)methylene]amino}-oxy)methyl]pyridin-2-yl}-1H-isoindole-1,3(2H)-dione] | – | – | chromatographic logP (HCOOH (formic acid)): 1.66 |
| Cc1ccccc1C(=NOCc1cccc(NC(=O)Cc2ccccc2)n1)c1ncnn1C [Example 30] | 3.11^[b] | – | – |
| COc1ccc(C(=NOCc2csc(N)n2)c2ncc(C(F)(F)F)cc2Cl)cc1Br [Example 357] | 2.8^[b] | – | – |
| Cn1c(C(=NOCc2cccc(NC(=O)C3CCCC3)n2)c2ccccc2)nnc1C(F)(F)F [Example 202] | – | 3.69^[b] | – |
| Cn1ncnc1C(=NOCc1cccc(CNC(=O)C(C)(C)C)n1)c1ccccc1 [Example 137] | 2.28^[b] | – | – |
| Cn1nc(C(=NOCc2cccc(N3C(=O)c4ccccc4C3=O)n2)c2ccccc2)n(C)c1=O [Example 142] | – | 2.66^[b] | – |
| CCCCCCCCCC(=O)Nc1ccnc(CON=C(c2ccccc2)c2cncn2C)n1 [Example 131] | 2.98^[b] | – | – |
| Cn1ncnc1C(=NOCc1csc(NC(=O)CCc2ccccc2)n1)c1cccs1 [Example 403] | 3.09^[b] | – | – |
| Cn1ncnc1C(=NOCc1ccccn1)c1ccccc1 [Example 50] | 1.51^[b] | – | – |
| Cn1ccnc1C(=NOCc1nccc(NC(=O)C(C)(C)C)n1)c1cccs1 [Example 390] | 1.56^[b] | – | – |
| Cn1ccnc1C(=NOCc1cccc(NC(=O)CCC2CCCC2)n1)c1ccccc1 [Example 281] | 3.19^[b] | – | – |
| Cn1cnnc1C(=NOCc1cccc(C#Cc2ccccc2)n1)c1ccccc1 [Example 232] | – | 3.15^[b] | – |
| Cc1cccnc1C(=NOCc1csc(NC(=O)CC(C)C)n1)c1cc(C(F)(F)F)ccn1 [Example 488] | – | – | log p [3]: 3.31^[b] |
| COc1ccc(C(=NOCc2cccc(N)n2)c2ncc(C(F)(F)F)cc2Cl)cc1Br [Example 358] | 2.54^[b] | – | – |
| CC(C)=C(OC(=O)C(C)C)c1ncc(C(=NOCc2nccc(NC(=O)C(C)C)n2)c2ccccc2)n1C [Example 110] | 2.77^[b] | – | – |
| Cn1ccnc1C(=NOCc1cccc(N)n1)c1ccccc1 [Example 11] | 0.36^[b] | – | log p (LC-MS, method [c]: pH 7.8 with 0.001 molar ammonium hydrogen carbonate solution in water): 1.89^[c]; |
| Cn1ncnc1C(=NOCc1cccc(N2C(=O)c3ccccc3C2=O)n1)c1ccccc1 [Example 13, 2-{6-[({[(1-methyl-1H-1,2,4-triazol-5-yl)(phenyl)methylene]amino}oxy)methyl]pyridin-2-yl}-1H-isoindole-1,3(2H)-dione] | – | – | chromatographic logP [4]: 2.76 |
| CCCC(=O)Nc1cccc(CON=C(c2cccs2)c2cncn2C)n1 [Example 445] | – | – | log p [3]: 1.5^[b] |
